# “And” between values parts separate entries of the source, which are not always exact repeats. Equal values may be shown once. Toxic doses and inconclusive results are not listed.
# System: L1210 leukemia ip in BDF1 mice, survival T/C
# Test: NCI In Vivo Anticancer Drug Screen. Data for tumor model L1210 Leukemia (intraperitoneal) in B6D2F1 (BDF1) mice
# Conditions: endpoint: mean survival time, higher = longer survival
# In short: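 Value reflects the ratio of survival in compound-treated mice to survival in vehicle-treated controls, with both groups carrying the same transplanted tumor.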
# [1] = dose: 100.0 mg/kg/injection, schedule: Q04DX003 (ip), vehicle: Klucel (hydroxypropylcellulose) (HPC)
# [2] = dose: 200.0 mg/kg/injection, schedule: Q04DX003 (ip), vehicle: Klucel (hydroxypropylcellulose) (HPC)
# [3] = dose: 400.0 mg/kg/injection, schedule: Q04DX003 (ip), vehicle: Klucel (hydroxypropylcellulose) (HPC)
# [4] = dose: 6.25 mg/kg/injection, schedule: Q01DX009 (ip), vehicle: saline
# [5] = dose: 12.5 mg/kg/injection, schedule: Q01DX009 (ip), vehicle: saline
# [6] = dose: 25.0 mg/kg/injection, schedule: Q01DX009 (ip), vehicle: saline
# [7] = dose: 25.0 mg/kg/injection, schedule: Q04DX003 (ip), vehicle: saline
# [8] = dose: 50.0 mg/kg/injection, schedule: Q04DX003 (ip), vehicle: saline
# [9] = dose: 100.0 mg/kg/injection, schedule: Q01DX001 (ip), vehicle: saline
# [10] = dose: 200.0 mg/kg/injection, schedule: Q01DX001 (ip), vehicle: saline
# [11] = dose: 400.0 mg/kg/injection, schedule: Q01DX001 (ip), vehicle: saline
# [12] = dose: 100.0 mg/kg/injection, schedule: Q04DX003 (ip), vehicle: saline with Tween-80
# [13] = dose: 200.0 mg/kg/injection, schedule: Q04DX003 (ip), vehicle: saline with Tween-80
# [14] = dose: 400.0 mg/kg/injection, schedule: Q04DX003 (ip), vehicle: saline with Tween-80
# [15] = dose: 100.0 mg/kg/injection, schedule: Q01DX009 (ip), vehicle: Klucel (hydroxypropylcellulose) (HPC)
# [16] = dose: 100.0 mg/kg/injection, schedule: Q04DX002 (ip), vehicle: Klucel (hydroxypropylcellulose) (HPC)
# [17] = dose: 200.0 mg/kg/injection, schedule: Q04DX002 (ip), vehicle: Klucel (hydroxypropylcellulose) (HPC)
# [18] = dose: 400.0 mg/kg/injection, schedule: Q04DX002 (ip), vehicle: Klucel (hydroxypropylcellulose) (HPC)
smiles,measurement,setting,value
C[C@@H]1CN(C(=O)CCOS(C)(=O)=O)[C@@H](C)CN1C(=O)CCOS(C)(=O)=O,T/C,"dose: 2.5 mg/kg/injection, schedule: Q01DX Z (ip), vehicle: carboxymethylcellulose (CMC)",112 % of control
same,T/C,"dose: 3.7 mg/kg/injection, schedule: Q01DX Z (ip), vehicle: carboxymethylcellulose (CMC)",102 % of control
same,T/C,"dose: 5.6 mg/kg/injection, schedule: Q01DX Z (ip), vehicle: carboxymethylcellulose (CMC)",115 % of control
same,T/C,"dose: 8.4 mg/kg/injection, schedule: Q01DX Z (ip), vehicle: carboxymethylcellulose (CMC)",103 % of control
same,T/C,"dose: 29.5 mg/kg/injection, schedule: Q01DX Z (ip), vehicle: carboxymethylcellulose (CMC)",116 % of control
same,T/C,"dose: 60.0 mg/kg/injection, schedule: Q01DX Z (ip), vehicle: carboxymethylcellulose (CMC)",166 % of control
same,T/C,"dose: 198.0 mg/kg/injection, schedule: Q01DX Z (ip), vehicle: carboxymethylcellulose (CMC)",117 % of control
same,T/C,"dose: 200.0 mg/kg/injection, schedule: Q01DX Z (ip), vehicle: carboxymethylcellulose (CMC)",119 % of control
same,T/C,"dose: 201.0 mg/kg/injection, schedule: Q01DX Z (ip), vehicle: carboxymethylcellulose (CMC)",91 % of control
same,T/C,"dose: 300.0 mg/kg/injection, schedule: Q01DX Z (ip), vehicle: carboxymethylcellulose (CMC)",121 % of control and 90 % of control
same,T/C,"dose: 302.0 mg/kg/injection, schedule: Q01DX Z (ip), vehicle: carboxymethylcellulose (CMC)",95 % of control
[Cu+2].[NH-]c1ccccc1C(=O)O.[NH-]c1ccccc1C(=O)O,T/C,"dose: 12.5 mg/kg/injection, schedule: Q01DX009 (ip), vehicle: saline with Tween-80",101 % of control
same,T/C,"dose: 12.5 mg/kg/injection, schedule: Q04DX003 (ip), vehicle: saline with Tween-80",97 % of control
same,T/C,"dose: 25.0 mg/kg/injection, schedule: Q01DX009 (ip), vehicle: saline with Tween-80",101 % of control
same,T/C,"dose: 25.0 mg/kg/injection, schedule: Q04DX003 (ip), vehicle: saline with Tween-80",97 % of control
same,T/C,"dose: 50.0 mg/kg/injection, schedule: Q01DX009 (ip), vehicle: saline with Tween-80",88 % of control
same,T/C,"dose: 50.0 mg/kg/injection, schedule: Q04DX003 (ip), vehicle: saline with Tween-80",90 % of control
Cc1cccc(CO)c1NC(=O)NCCCl,T/C,[1],99 % of control
same,T/C,[2],110 % of control
same,T/C,[3],103 % of control
CN1CCC(OC2c3ccccc3CCc3ccccc32)CC1,T/C,"dose: 3.12 mg/kg/injection, schedule: Q01DX009 (ip), vehicle: saline",109 % of control
same,T/C,[4],108 % of control
same,T/C,[5],106 % of control
same,T/C,[6],111 % of control
same,T/C,[7],100 % of control
same,T/C,"dose: 50.0 mg/kg/injection, schedule: Q01DX009 (ip), vehicle: saline",117 % of control
same,T/C,[8],103 % of control
same,T/C,"dose: 100.0 mg/kg/injection, schedule: Q01DX009 (ip), vehicle: saline",88 % of control
same,T/C,"dose: 100.0 mg/kg/injection, schedule: Q04DX003 (ip), vehicle: saline",86 % of control
N#Cc1ccc(S(=O)(=O)N=C(N)N)cc1,T/C,[9],100 % of control
same,T/C,[10],91 % of control
same,T/C,[11],90 % of control
CCCCCC(C)C(=O)CCCC (configuration not stated) (tested in a mixture with another compound),T/C,[12],106 % of control
same,T/C,[13],97 % of control
same,T/C,[14],86 % of control
CCC(C(=O)Cl)c1ccc(-c2ccccc2)cc1 (configuration not stated),T/C,"dose: 50.0 mg/kg/injection, schedule: Q01DX001 (ip), vehicle: saline with Tween-80",96 % of control
same,T/C,"dose: 100.0 mg/kg/injection, schedule: Q01DX001 (ip), vehicle: saline with Tween-80",96 % of control
same,T/C,"dose: 200.0 mg/kg/injection, schedule: Q01DX001 (ip), vehicle: saline with Tween-80",96 % of control
O=C(/C=C/c1ccccc1)c1ccc(O)cc1O,T/C,"dose: 50.0 mg/kg/injection, schedule: Q01DX001 (ip), vehicle: saline",97 % of control
same,T/C,[9],95 % of control
same,T/C,[10],97 % of control
C[C@H](CCC(=O)O)[C@H]1CC[C@H]2[C@@H]3CCC4=C(O)C(=O)CC[C@]4(C)[C@H]3CC(=O)[C@]12C,T/C,"dose: 100.0 mg/kg/injection, schedule: Q01DX001 (sc), vehicle: steriod suspending solution",101 % of control
same,T/C,"dose: 200.0 mg/kg/injection, schedule: Q01DX001 (sc), vehicle: steriod suspending solution",98 % of control
same,T/C,"dose: 400.0 mg/kg/injection, schedule: Q01DX001 (sc), vehicle: steriod suspending solution",103 % of control
CCOC(=O)c1c[nH]c2nc(SC)[nH]c(=O)c2c1=O,T/C,"dose: 25.0 mg/kg/injection, schedule: Q01DX009 (ip), vehicle: Klucel (hydroxypropylcellulose) (HPC)",86 % of control
same,T/C,"dose: 25.0 mg/kg/injection, schedule: Q04DX003 (ip), vehicle: Klucel (hydroxypropylcellulose) (HPC)",104 % of control
same,T/C,"dose: 50.0 mg/kg/injection, schedule: Q01DX009 (ip), vehicle: Klucel (hydroxypropylcellulose) (HPC)",93 % of control
same,T/C,"dose: 50.0 mg/kg/injection, schedule: Q04DX003 (ip), vehicle: Klucel (hydroxypropylcellulose) (HPC)",103 % of control
same,T/C,"dose: 100.0 mg/kg/injection, schedule: Q01DX001 (ip), vehicle: Klucel (hydroxypropylcellulose) (HPC)",102 % of control
same,T/C,[15],101 % of control
same,T/C,[1],101 % of control
same,T/C,"dose: 200.0 mg/kg/injection, schedule: Q01DX001 (ip), vehicle: Klucel (hydroxypropylcellulose) (HPC)",98 % of control
same,T/C,"dose: 400.0 mg/kg/injection, schedule: Q01DX001 (ip), vehicle: Klucel (hydroxypropylcellulose) (HPC)",107 % of control
CC(C)(C)C(=O)C=C(C(F)(F)F)C(F)(F)F,T/C,[4],106 % of control
same,T/C,"dose: 6.25 mg/kg/injection, schedule: Q04DX003 (ip), vehicle: saline",100 % of control
same,T/C,[5],106 % of control
same,T/C,"dose: 12.5 mg/kg/injection, schedule: Q04DX003 (ip), vehicle: saline",97 % of control
same,T/C,[6],108 % of control
same,T/C,[7],105 % of control
same,T/C,[8],96 % of control and 105 % of control
CC12CCCCC1(O)CC(=O)CC2 (configuration not stated),T/C,[16],101 % of control
same,T/C,[17],99 % of control
same,T/C,[18],108 % of control
CN(C)c1ccc(C(=O)C#N)cc1,T/C,[15],100 % of control
same,T/C,"dose: 200.0 mg/kg/injection, schedule: Q01DX009 (ip), vehicle: Klucel (hydroxypropylcellulose) (HPC)",108 % of control
same,T/C,"dose: 400.0 mg/kg/injection, schedule: Q01DX009 (ip), vehicle: Klucel (hydroxypropylcellulose) (HPC)",100 % of control
Clc1ccccc1CC12CCCCC1N2 (configuration not stated),T/C,[1],103 % of control
same,T/C,[2],90 % of control
same,T/C,[3],103 % of control
COc1cc2c(c(OC)c1OC)CCc1cnoc1-2,T/C,[16],97 % of control
same,T/C,[17],112 % of control
same,T/C,[18],91 % of control
CC(=O)C1C(=O)N(C)C(=O)N(C)C1=O,T/C,"dose: 75.0 mg/kg/injection, schedule: Q01DX001 (ip), vehicle: carboxymethylcellulose (CMC)",97 % of control
same,T/C,"dose: 150.0 mg/kg/injection, schedule: Q01DX001 (ip), vehicle: carboxymethylcellulose (CMC)",100 % of control
same,T/C,"dose: 300.0 mg/kg/injection, schedule: Q01DX001 (ip), vehicle: carboxymethylcellulose (CMC)",103 % of control
CC(=O)Nc1ccc2c(c1)-c1ccccc1C2=O,T/C,[12],98 % of control
same,T/C,[13],100 % of control
same,T/C,[14],98 % of control
CCCCCCCCCCCCCC(CCC)CCC,T/C,[9],94 % of control
same,T/C,[10],96 % of control
same,T/C,[11],94 % of control
NS(=O)(=O)c1ccc(N=Nc2nc3[nH]cnc(=S)c3[nH]2)cc1,T/C,"dose: 8.0 mg/kg/injection, schedule: Q01DX009 (ip), vehicle: saline",116 % of control
same,T/C,"dose: 15.0 mg/kg/injection, schedule: Q01DX009 (ip), vehicle: saline",121 % of control
same,T/C,"dose: 62.5 mg/kg/injection, schedule: Q01DX015 (ip), vehicle: saline",115 % of control
same,T/C,"dose: 125.0 mg/kg/injection, schedule: Q01DX015 (ip), vehicle: saline",121 % of control
same,T/C,"dose: 250.0 mg/kg/injection, schedule: Q01DX009 (ip), vehicle: saline",104 % of control
same,T/C,"dose: 250.0 mg/kg/injection, schedule: Q01DX015 (ip), vehicle: saline",153 % of control

# — PubChem BioAssay AID248 (DTP/NCI, 2004)
